These results are taken from publication PMC10224329, “Design, Synthesis, and Antiproliferative Activity of Benzopyran-4-One-Isoxazole Hybrid Compounds” (Molecules, 2023).

The structures appear in SMILES notation.

Experiment [1] deals with androgen-independent human prostate cancer (DU-145) cell lines. The experiment can be described thus: MTS cell viability assay. The note with it: for IC50: average of three independent tests in triplicate; for inhibition at 25 µM: conjugates at 25 μM. It counts as cell-based. As to the method:
(§1) All the 14 hybrid compounds synthesized via Scheme 1, along with the intermediates and starting compounds, were tested in vitro for their cytotoxicity against a panel of 6 human cancer cell lines. This panel involved human leukemia carcinoma (CCRF-CEM), human ovarian adenocarcinoma (SKOV-3), human breast tumor (MDA-MB-231), human prostate cancer (PC-3), androgen-independent human prostate cancer (DU-145), and human renal carcinoma (iSLK) cell lines. The compounds were tested at a concentration of 25 μM for incubation periods of 24 and 72 h. Standard anticancer drug doxorubicin at a concentration of 5 μM and DMSO were used as controls in all the cell assays. The antiproliferative profile of benzopyran-4-one-isoxazole conjugates is shown in Figure 2 (cf. Supplementary Materials for the data obtained for intermediates and starting materials Figure S28.1–S28.6, page no. 71–76).
(§2) Cell viability assays were performed using the MTS protocol. The in vitro cytotoxicity of the conjugates was evaluated using six human cancer cell lines, one human normal kidney cell line, and one mammalian normal kidney cell line, which included human leukemia carcinoma cell lines (CCRF-CEM), human ovarian adenocarcinoma cell lines (SKOV-3), human breast tumor cell lines (MDA-MB-231), human prostate cancer cell lines (PC-3), androgen-independent human prostate cancer cell lines (DU-145), human renal carcinoma (iSLK), human embryonic kidney cell lines (HEK-293), and normal mammalian kidney cell line (LLCPK) to determine the toxicity of the synthesized conjugates. CCRF-CEM cells were seeded at 50,000 cells in 0.1 mL per well in 96-well plates, and in the case of SKOV-3, MDA-MB-231, PC-3, DU-145, HEK-293, and LLCPK cell lines, the cells were seeded at 5000 cells in 0.1 mL per well in 96-well plates. The CCRF-CEM cells were seeded in RPMI-1640 media containing 2mM L-glutamine, 1.5 g/L sodium bicarbonate, supplemented with fetal bovine serum (FBS) 10% media, SKOV-3, MDA-MB-231, and LLCPK cells were seeded in MEME media with Earle’s salts and sodium bicarbonate, without L-glutamine, supplemented with fetal bovine serum (FBS) 10%, PC-3 cells were seeded in DMEM:F-12 containing 1:1 mixture with L-glutamine with HEPES, supplemented with fetal bovine serum (FBS) 10%, and DU-145 and HEK-293 cells were seeded in DMEM containing 4500 mg/L glucose, L-glutamine, and sodium bicarbonate, without sodium pyruvate, supplemented with FBS (10%), 24 h prior to the experiment. The compounds at a final concentration of 25 µM (higher concentration stock solution prepared in DMSO) were added to each well in triplicate and incubated for 24 and 72 h at 37 °C in a humidified atmosphere (95% air and 5% CO2). The cell viability was then determined by measuring the absorbance of the formazan product at 490 nm using a microplate reader using a SpectraMax M2 microplate spectrophotometer, Molecular Devices, San Jose, CA, USA. The percentage of cell survival was calculated as [(OD value of cells treated with the test mixture of compounds) − (OD value of culture medium)]/[(OD value of control cells) − (OD value of culture medium)] × 100%. IC50 values of compounds were calculated using non-linear regression analysis in GraphPad Prism (Boston, MA, USA).

The test system of experiment [2] is human breast tumor (MDA-MB-231) cell lines. The experiment can be described thus: MTS cell viability assay. Format: cell-based. To be noted: for IC50: average of three independent tests in triplicate; for inhibition at 25 µM: conjugates at 25 μM. As to the method:
as §1, §2
In general terms: Tetrazolium dyes change colour on reduction, which living cells bring about.

Experiment [3] deals with human leukemia carcinoma (CCRF-CEM) cell lines. The experiment can be described thus: MTS cell viability assay. Format: cell-based. To be noted: for inhibition at 25 µM: conjugates at 25 μM; for IC50: average of three independent tests in triplicate. How it is done:
as §1, §2

Experiment [4] deals with human ovarian adenocarcinoma (SKOV-3) cell lines. The experiment can be described thus: MTS cell viability assay. It counts as cell-based. To be noted: 72 h, read-out: Inhibition of Cancer Cell Lines SKOV-3; for inhibition at 25 µM: SK-OV-3, conjugates at 25 μM. How it is done:
as §1, §2

Experiment [5] concerns human prostate cancer (PC-3) cell lines. The experiment can be described thus: MTS cell viability assay. The note with it: for IC50: PC3, average of three independent tests in triplicate; for inhibition at 25 µM: conjugates at 25 μM. Format: cell-based. How it is done:
as §1, §2

Experiment [6] concerns human renal carcinoma (iSLK) cell lines. The experiment can be described thus: MTS cell viability assay. Format: cell-based. To be noted: 72 h; for inhibition at 25 µM: Homo sapiens, conjugates at 25 μM, read-out: Inhibition of Cancer Cell Lines iSLK. As to the method: as §1, §2
Experiment [7] has as its system human embryonic kidney (HEK-293) cell lines. The experiment can be described thus: MTS cell viability assay, non-cancerous cells. It counts as cell-based. The note with it: for IC50: average of three independent tests in triplicate; for inhibition at 25 µM: HEK293, conjugates at 25 μM, 72 h.
Description: (§3) The compounds were further screened for their in vitro cytotoxicity against non-cancerous normal cell lines, viz., human embryonic kidney (HEK-293) and normal pig kidney (LLCPK) cell lines. These cell lines were selected to determine whether the compounds had selectivity against cancerous cells in contrast to non-cancerous cells. The data obtained is shown in Figure 3a–b (cf. Supplementary Materials for the data obtained for intermediates and starting materials Figure S28.7–S28.8, page no. 77–78).
as §2

The test system of experiment [8] is panel of cancer cell lines (CCRF-CEM, SKOV-3, MDA-MB-231, PC-3, DU-145, iSLK). The experiment can be described thus: MTS cell viability assay, summary over the cancer cell line panel. Format: cell-based. To be noted: Homo sapiens; range over CCRF-CEM, MDA-MB-231, PC3, DU-145; read-out: IC50 against all the cancer cell lines (range). How it is done:
as §1, §2

Experiment [9] concerns normal pig kidney (LLCPK) cell lines. The experiment can be described thus: MTS cell viability assay, non-cancerous cells. Format: cell-based. The note with it: Sus scrofa, 72 h.
Description: as §3, §2

In a further experiment the test system is MDA-MB-231 cells. The experiment can be described thus: Annexin V-FITC/PI apoptosis assay by flow cytometry. It counts as cell-based, human. The note with it: MDA-MB-231, 5 μM, 72 h. As to the method: In accordance with the MTS assay, compound 5a had promising antiproliferative action. Therefore, we attempted to study the mechanism triggering cell death. […] MDA-MB-231 cells were treated with 5 μM of compound 5a and Dox (5 μM) as a positive control and incubated for 72 h, then double-stained carefully by membrane-linked protein Annexin-V fluorescein isothiocyanate (FITC) and propidium iodide (PI) for flow cytometry analysis. Normally, in the early stages of apoptosis, phosphatidylserine flips from the inner cell membrane to the surface of the cell membrane. […] PI is a nucleic acid dye that can only cross the membrane of advanced apoptosis and necrotic cells and redden the nucleus. Consequently, when the treated cells are double stained by the two fluorescent dyes, early and late apoptosis and necrotic cells can be clearly distinguished. […] These findings illustrated that compound 5a mainly leads to the early apoptosis of MDA-MB-231 cells.
The assay was detected using a commercially available kit (FITC Annexin V Apoptosis Detection Kit II, BD Biosciences, San Jose, CA, USA) per the manufacturer’s instructions. Briefly, MDA-MB-231 cells were seeded in 6-well plates at a concentration of 1 × 10^6 cells/well for 24 h; after that, cells were treated with 5a (5 µM) for 72 h. Dox (5 µM) was used as a positive control. After the treatment period, cells were washed with cold phosphate-buffered saline (PBS) twice. The cells were collected after trypsin treatment and centrifugated to get a pellet, and a binding buffer (1X) was used to resuspend the cells. Annexin V (5 μL) and propidium iodide (PI) (5 μL) were mixed with 100 μL of the suspended cells (1 × 10^6 cells/mL), followed by 15 min incubation at room temperature in the dark. The mixture was diluted by adding 400 μL of 1× binding buffer, and the cells were analyzed using flow cytometry, FACS Verse (BD Biosciences, USA). The experiment was repeated three times independently.
A general note: In flow cytometry, cells or beads pass a laser one at a time.

The subject of experiment [10] is human embryonic kidney (HEK-293) cell lines. The experiment can be described thus: MTS cell viability assay, non-cancerous cells. Format: cell-based. To be noted: HEK293, Dox at 5 μM, 72 h.
Experiment [11] addresses phosphatidylinositol 3-kinase (PI3K). The arrangement: method as in PMID 8106507. To be noted: cellular; cited from earlier work.
Where [12] appears, read: 72 h, read-out: Inhibition of Cancer Cell Lines MDA-MB-231.
Where [13] appears, read: Homo sapiens, CCRF-CEM, 72 h, read-out: Inhibition of Cancer Cell Lines CCRF-CEM.
Where [14] appears, read: Homo sapiens, HEK293, normal HEK-293 cells.

By IC50 is commonly meant the concentration at which inhibition is half-maximal. For orientation: inhibition means the relative decrease from the control value, in per cent. For `COc1cccc2occ(COC(=O)c3c(C)noc3C)c(=O)c12` [Compound 5b, (5-Methoxy-4-oxo-4H-1-benzopyran-3-yl)methyl 3,5-dimethylisoxazole-4-carboxylate], the IC50 in [1] stood at 51.1 µM; in experiment [2], 22.2 µM; in experiment [3] (Homo sapiens, CCRF-CEM), 36.5 µM; in [5] it was 14.8 µM; in experiment [7] (setting [14]) it was 102 µM; in [7] (normal HEK-293 cells) it was 192 µM. In [8], the half-inhibitory concentration (IC50) fell in the range of 14.8 to 51.1 µM. Further, the inhibition at 25 µM in experiment [1] (72 h) was 50%; in [2] (setting [12]), 60%; in [3] (setting [13]), 83%; in experiment [4], 42%; in experiment [5] (72 h) it was 75%; in experiment [6] it was 23%. Besides, the inhibition at 25 µM in experiment [7] (Homo sapiens) amounted to 34%.

`COc1cccc2c1C(=O)c1c(O)c3c(c(O)c1C2=O)C[C@@](O)(C(=O)CO)C[C@@H]3O[C@H]1C[C@H](N)[C@H](O)[C@H](C)O1` [doxorubicin, reference compound]: the inhibition at 5 µM in experiment [1] (Dox at 5 μM, 72 h) was determined as 57%; in experiment [2] (Dox at 5 μM, 72 h, read-out: Inhibition of Cancer Cell Lines MDA-MB-231), 73%; in experiment [3] (Homo sapiens, CCRF-CEM, Dox at 5 μM, 72 h, read-out: Inhibition of Cancer Cell Lines CCRF-CEM), 82%; in experiment [4] (SK-OV-3, Dox at 5 μM), 62%; in [5] (Dox at 5 μM, 72 h), 54%; in [9] (Dox at 5 μM), 74%. In addition, in experiment [10], the inhibition at 5 µM was 43%. The “Inhibition of Cancer Cell Lines iSLK” value in experiment [6] (Dox at 5 μM) is “NIL”. For the same molecule, the “Early Apoptosis” value with MDA-MB-231 cells worked out at 61.15%. In addition, in the experiment with MDA-MB-231 cells, the “Late Apoptosis” value was determined as 28.29%.

With `COc1ccc2c(=O)c(COC(=O)c3c(C)noc3C)coc2c1` [Compound 5d, (7-Methoxy-4-oxo-4H-1-benzopyran-3-yl)methyl 3,5-dimethylisoxazole-4-carboxylate], the IC50 in [1] was found to be 14.6 µM; in [2], 5.26 µM; in experiment [3] (Homo sapiens, CCRF-CEM), 16.2 µM; in experiment [5] it was 12.7 µM; in [7] (setting [14]), 192 µM; in [7] (normal HEK-293 cells), 102 µM. The IC50 in experiment [8] is 5.2 to 16.1 µM. Moreover, the inhibition at 25 µM in experiment [1] (72 h) is 79%; in experiment [2] (setting [12]), 76%; in [3] (setting [13]), 82%; in [4] it was 48%; in experiment [5] (72 h) it was 75%; in experiment [6] it was 42%. Moreover, the inhibition at 25 µM in experiment [7] (Homo sapiens) stood at 40%; in experiment [9] (conjugates at 25 μM), 18%.

On to `COc1ccc2occ(COC(=O)c3c(C)noc3C)c(=O)c2c1` [Compound 5c, (6-Methoxy-4-oxo-4H-1-benzopyran-3-yl)methyl 3,5-dimethylisoxazole-4-carboxylate], for which the half-inhibitory concentration (IC50) in experiment [1] is 12.2 µM; in experiment [2] it was 11 µM; in [3] (Homo sapiens, CCRF-CEM), 3.31 µM; in experiment [5], 12.9 µM; in experiment [7] (setting [14]), 222 µM; in experiment [8], 3.3 to 12.9 µM. Further, the inhibition at 25 µM in experiment [1] (72 h) stood at 81%; in [2] (setting [12]) it was 70%; in experiment [3] (setting [13]), 83%; in experiment [4] it was 45%; in experiment [5] (72 h), 74%; in experiment [6], 31%. Moreover, in experiment [7] (Homo sapiens), the inhibition at 25 µM amounted to 38%. Further, the “fold potency for CCRF-CEM cell lines” value in experiment [3] (compared to 5a, 5b, and 5d, from IC50) is 3–12 fold.

For the molecule `O=c1cc(N2CCOCC2)oc2c(-c3ccccc3)cccc12` [LY294002, 2-(4-Morpholinyl)-8-Phenyl-4H-1-Benzopyran-4-One], in [11], the IC50 is roughly 1.4 µM.
